Here are results for 9 compounds from patent EP4772649A1, “SCREENING METHOD FOR ODOR-SUPPRESSING MATERIAL” (Takasago International Corporation, priority 2023, dated 2025).

“Also recorded” adds a separate entry of the source.

Test [1] has as its system olfactory receptor OR2AG2. The test can be described thus: Luciferase reporter gene assay of olfactory receptor response (Fold Increase) in HEK293T cells expressing OR2AG2. As to conditions: for OR2AG2 response (Fold Increase value): screening of 1,367 odorant substances, 1 µM to 1 mM, Figure 2. In kind it is cell-based, human. Here is the method: 0.05 µg of the human olfactory receptor gene expression vector, 0.01 µg of RTP1S vector, 0.01 µg of the firefly luciferase vector pGL4.29 (Promega) containing a cAMP response element promoter, and 0.005 µg of the Renilla luciferase vector pGL4.74 (Promega) containing a thymidine kinase promoter were dissolved in 10 µL of Opti-MEM I (gibco) to prepare a gene solution (for one well). HEK293T cells were seeded at 100 µL per well in a 96-well plate (Biocoat, Corning) at a cell number that would reach confluence after 24 hours. The gene solution was added to each well using lipofection in accordance with the instructions for Lipofectamine 3000 to introduce the gene into the cells, which were then cultured at 37°C in a 5% carbon dioxide atmosphere for 24 hours.
After removing the culture medium, 60 µL of an odorant compound sample prepared in CD293 medium (gibco) (supplemented with 20 µM L-glutamine), at the concentration required for measurement, was added to each well. After stimulation for 3 hours, luciferase activity was measured in accordance with the instructions for the Dual-Luciferase Reporter Assay System (Promega). The response intensity of the olfactory receptor was determined using, as an index, a Fold Increase value obtained by dividing the luciferase activity generated by stimulation with the odorant compound by the luciferase activity generated in a test system free of the odorant compound.
For odorant substances whose response values in the luciferase reporter gene assay were equal to or greater than a predetermined threshold, the primary note from the odor-note information was extracted, and the proportion of each odor note was determined.
To extract the "dust odor" generated when aspartame is combined with certain fruit flavors, as described in Patent Literature 1, which is well-known as a "dust odor" of unknown causative substance, aspartame, trans-2-hexenal, and hexanal were mixed at a 1:1:1 (mass ratio) and gently heated at 60°C for one week, after which the reaction product was extracted with hexane. The present extract was fractionated by medium-pressure HPLC with a silica gel column using hexane and ethyl acetate, then fractionated by medium-pressure HPLC with an ODS column using water and acetonitrile, and further fractionated by high-pressure HPLC with an ODS column using water and acetonitrile, to obtain an odor solution containing "dust odor." This "dust odor" solution with unknown components was added to HEK293T cells expressing the olfactory receptor OR2AG2 gene at final concentrations of 0.05 mass%, 0.1 mass%, and 0.2 mass%, and a luciferase reporter gene assay was performed.

Test [2] has as its system olfactory receptor OR2AG1. The note with it: Non Patent Literature 6; cited from earlier work.
Test [3] deals with olfactory receptor OR2AG2. Briefly: Antagonist screening: suppression of OR2AG2 response by luciferase reporter gene assay (Normalized Response). In kind it is cell-based, human. As for the experimental part:
The human olfactory receptor OR2AG2 gene expression vector was cloned, and HEK293T cells expressing the olfactory receptor OR2AG2 gene were used to perform an antagonist screening in which the effect of test substances on suppressing OR2AG2 response is measured by a luciferase reporter gene assay. In the luciferase reporter gene assay, each of approximately 500 test substances was individually mixed with each "dust odor" compound sample, and the Fold Increase value obtained in each test with the test substance mixed was calculated as the Normalized Response, assuming that the Fold Increase value obtained in the test without mixing any test substance was 1. The concentrations of the "dust odor" compounds used as samples were set as follows: a) 3-ethyl-2-pentylpyridine, 300 µM; b) 2-methoxy-3-isopropylpyrazine, 500 µM; c) 2-isobutyl-3-methoxypyrazine, 500 µM; and d) 2-sec-butyl-3-methoxypyrazine, 500 µM. […] As examples of antagonists thereby identified for each of the "dust odor" compounds a) to d), a) 2,4-decadienal, b) trans-2-nonenal, c) 2,4-undecadienal, and d) 2,4-decadienal were measured for their concentration-dependent effects in suppressing OR2AG2 response to each sample substance using a luciferase reporter gene assay. The concentrations of the samples were set as follows: a) 3-ethyl-2-pentylpyridine, 300 µM; b) 2-methoxy-3-isopropylpyrazine, 500 µM; c) 2-isobutyl-3-methoxypyrazine, 500 µM; and d) 2-sec-butyl-3-methoxypyrazine, 500 µM. The concentrations of the antagonists for each sample were set at 0 µM, 10 µM, 30 µM, 100 µM, and 300 µM.
As in (2-3) of Example 2, HEK293T cells expressing the olfactory receptor OR2AG2 gene were used to determine the effect of test substances in suppressing OR2AG2 response to an odor solution sample with unknown components containing "dust odor" by antagonist screening using a luciferase reporter gene assay. […] As an example of antagonist, the effect of trans-2-nonenal in suppressing OR2AG2 response to the "dust odor" solution with unknown components was measured by a luciferase reporter gene assay. The final concentration of the sample was 0.1 mass%, and the concentrations of trans-2-nonenal relative to the sample were 0 µM, 1 µM, 2 µM, and 4 µM.
(A reporter such as luciferase makes a cellular process visible.)

The next test concerns OR2M3. As to conditions: Patent Literature 2; cited from earlier work.
In the next test the test system is OR11A1. As to conditions: Patent Literature 2; cited from earlier work.

Turning to `COc1nccnc1C(C)C` [2-methoxy-3-isopropylpyrazine], the “OR2AG2 response (Fold Increase value)” value in test [1] is “trigger OR2AG2 response”. The “response of olfactory receptor OR2AG1” value in test [2] is listed as “responds”.
In the case of `CCCCCC=CC=CC=O` [2,4-decadienal], the “Normalized Response” value in test [3] (against 2-sec-butyl-3-methoxypyrazine 500 µM, test substance 1 µM to 1 mM) was “less than 1”; in test [3] (against 3-ethyl-2-pentylpyridine 300 µM, test substance 1 µM to 1 mM) it was “less than 1”.
Turning to `CCCCCC/C=C/C=O` [trans-2-nonenal], the “Normalized Response” value in test [3] (against 0.1 mass% odor solution with unknown components containing "dust odor") was “below 1”; in test [3] (against 2-methoxy-3-isopropylpyrazine 500 µM, test substance 1 µM to 1 mM), “less than 1”.
Turning to `CCCCCc1ncccc1CC` [3-ethyl-2-pentylpyridine], the “OR2AG2 response (Fold Increase value)” value in test [1] is “trigger OR2AG2 response”.
With `CCC(C)c1nccnc1OC` (stereo not drawn) [2-sec-butyl-3-methoxypyrazine], the “OR2AG2 response (Fold Increase value)” value in test [1] was “trigger OR2AG2 response”. In addition, the “response of olfactory receptor OR2AG1” value in test [2] is “responds”.
As for `CCCCCCC=CC=CC=O` [2,4-undecadienal], the “Normalized Response” value in test [3] (against 2-isobutyl-3-methoxypyrazine 500 µM, test substance 1 µM to 1 mM) is “less than 1”.
As to `CC1(O)CC2CCC1(C)C2(C)C` (stereo not drawn) [2-methylisoborneol], in the test with OR2M3, the “response of olfactory receptor OR2M3” value was “specifically respond”.
For `COc1nccnc1CC(C)C` [2-isobutyl-3-methoxypyrazine], in test [1] (1 mM odorant, screening of 396 human olfactory receptors, Figure 1), the “response of olfactory receptor OR2AG2 (Fold Increase value)” value is “extremely strong response; also recorded: strong and specific response”. Besides, in test [1], the “OR2AG2 response (Fold Increase value)” value is listed as “trigger OR2AG2 response”. The “response of olfactory receptor OR2AG1” value in test [2] is recorded as “responds”.
On to `CC1CCCC2(C)CCCCC12O` (stereo not drawn) [geosmin], for which, in the test on OR11A1, the “response of olfactory receptor OR11A1” value is on record as “specifically respond”.
